In patent publication US20160120915A1, “METHODS FOR MANIPULATING IMMUNE RESPONSES BY ALTERING MICROBIOTA” (NEW YORK UNIVERSITY, priority 2013, published 2016):
Structures can show the parent of a compound that is named as a salt.

Legend:
ileum = test: EarlySTAT: ileal gene expression by qPCR in 4- and 8-week mice; type: in vivo, C57BL/6J mice; settings: STAT vs control
Source text: C57BL/6J (Jackson Labs, Bar Harbor, Me.) mice either received no antibiotics (control) or continuous STAT penicillin. Mice were weaned at 4 weeks onto normal chow (13.2% fat, 5053 PicoLab Rodent Diet 20, LabDiet, Brentwood, Mo.), then switched to a high fat diet (45% kcal from fat, D12451, Research Diets, New Brunswick, N.J.) at 6 weeks of life. Mice were sacrificed at 4, 8, and 18 weeks of age. The terminal[1 cm] ileum without Peyer's Patches [TI-] was collected for gene expression analysis by qPCR. The proximal 1 cm of ileum was used for histological analysis of tissue structure, and the remaining ileum was used to determine immunity phenotypes by flow cytometry.
C57BL6J mice were exposed to sub-therapeutic antibiotic treatment (STAT) with penicillin via their drinking water from birth, or no antibiotics (Control). Mice were fed a normal diet until 6 weeks of age, then they were fed high fat diet. 5 mice from each experimental group were sacrificed at 4 weeks, and 4 mice from each group were sacrificed at 8 weeks. The terminal[1 cm] ileum without Peyer's Patches [TI-] was collected for gene expression analysis by qPCR. The proximal 1 cm of ileum was used for histological analysis of tissue structure, and the remaining ileum was used to determine immunity phenotypes by flow cytometry. Ileal gene expression was also measured by microarray and the nCounter GX Mouse Immunology Kit (Nanostring Technologies, Seattle, Wash., USA).
Total RNA was extracted from mouse tissues using the RNeasy Mini Kit (Qiagen), according to the manufacturer's instructions. Total RNA was reverse transcribed to cDNA using the Verso™ cDNA Synthesis Kit (Thermo Scientific). To generate standards for expression analysis of each target gene, the cDNA region of interest was PCR-amplified and the PCR product was cloned into pGEM-T easy (Promega). qPCR was performed with LightCycler 480 SYBR Green I Master mix (Roche) and run in a LightCycler 480 system (Roche). Target mRNA was normalized to GAPDH mRNA as an internal control in each sample.
Ileal expression of T-bet [Th1], GATA3 [Th2], Foxp3 [Treg], and RORγt [Th17] (FIG. 4A), and IFNγ [Th1], IL-4 [Th2], TGFβ1 [Treg], and IL-17 [Th17] (FIG. 4B) (4-week; Control, n=4, STAT, n=5, 8-week; Control, n=3, STAT, n=4) was quantitated by qPCR and normalized by GAPDH expression. […] These studies provide evidence that low dose antibiotic exposure can be used to change immune effector T-cell populations and the effector molecules they produce.
Ileal expression of defensin β1, Reg3γ, and Relmβ (4-week; Control n=4, STAT n=5, 8-week; Control n=3, STAT n=4) was quantitated by qPCR and normalized by GAPDH expression. […] These findings provide examples of how the STAT exposure changed intestinal expression of antimicrobial peptide genes.
Ileal expression of the IgA J-chain, polymeric Ig receptor (pIgR), both related to polymeric IgA function, and TLR2 and TLR4 was quantitated by qPCR and normalized by GAPDH expression in 4- and 8-week STAT [4-week; Control n=3, STAT n=4, 8-week; Control n=3, STAT n=4].

ileal tissue = test: Ileal gene expression profiling by whole genome microarray, 8-week EarlySTAT; type: in vivo, C57BL/6J mice
Procedure: Ileal gene expression profiling of STAT, PAT, and control animal groups, was performed using the Affymetrix Genechip system (Affymetrix). Total RNA quality and quantity were determined using the Agilent 2100 Bioanalyser and Nanodrop ND-1000. Total RNA (100 ng) was used to prepare cDNA following the Affymetrix […] Express Kit labelling protocol (Affymetrix). Standardized array processing procedures recommended by Affymetrix were performed, including hybridization, fluidics processing and scanning of the Affymetrix MG-430 2.0 arrays. GeneSpring GX11 software (Agilent Technologies) was used to normalize the raw data (Affymetrix CEL files) by Robust Multichip Average algorithm (RMA).
997 reproducibly regulated genes were identified from ˜45,000 genes of the mouse genome by T-test (p<0.05) and fold change (≧1.2 or ≦0.8) in 8-week STAT mice (FIG. 8). DAVID analysis was performed using the regulated genes, and Gene Set Enrichment analysis (GSEA) was performed using whole gene data.

[1] = tested on: SAA genes in terminal ileum; test: NOD: SAA 1, 2, 3 gene expression in terminal ileum by qPCR; type: in vivo; settings: 6-week old NOD male mice, qPCR normalized to 18S rRNA, p<0.05
Procedure: The distal ileum (1 cm) without Peyer's Patches was collected from each mouse for RNA extraction and kept in RNAlater (Ambion) overnight at 4° C. Samples were stored at −80° C. until RNA extraction was performed.
Total RNA was extracted from mouse tissues using the RNeasy Mini Kit with on-column DNase treatment to remove contaminating gDNA (Qiagen), according to the manufacturer's instructions. 1 μg of total RNA was reverse transcribed to cDNA using Super Script II (Applied Biosystems) according to the manufacturer's instructions. To generate standards for expression analysis of each target gene, the cDNA region of interest was PCR-amplified and the product cloned into pGEM-T easy (Promega). qPCR was performed with Power SYBR Green PCR Master mix (Roche) and run in a LightCycler 480 system (Roche). Target mRNA was normalized to 18S rRNA as an internal control in each sample.
RNA was extracted from the terminal ileum of the 6-week old NOD mice. […] RNA was reverse transcribed into cDNA and then qPCR was performed for SAA1, 2, or 3 using an absolute quantitation method. Gene expression data were normalized to 18S rRNA expression. […] The results for this experiment show consistent decreases in expression of the SAA genes in the ileum, detected by two independent methods (microarray and qPCR). […]

[2] = 4- and 8-week, qPCR and microarray

SMILES	expression of all four transcription factors (T-bet, GATA3, Foxp3, RORγt) (ileum; 4- and 8-week mice)	ileal B cell markers (IgA J-chain, pIgR) (ileum; [2])	ileal TLRs (TLR2, TLR4) (ileum; [2])	ileal expression of IL-17 [Th17] (ileum; at 4- and 8-weeks, p<0.05)	ileal expression of RORγt [Th17] (ileum; at 4- and 8-weeks, p<0.05)	ileal expression of T-bet [Th1] (ileum; at 4- and 8-weeks, p<0.05)	ileal expression of IFNγ [Th1] (ileum; at 4-weeks, p<0.05)	ileal Relmβ expression (ileum; at 4 weeks, p<0.05)	ileal expression of GATA3 [Th2] (ileum; at 8-weeks, p<0.05)	ileal expression of TGFβ1 [Treg] (ileum; at 8-weeks, p<0.05)	ileal expression of all three antimicrobial peptides (defensin β1, Reg3γ, Relmβ) (ileum; at 8 weeks, p<0.05)	reproducibly regulated genes out of ~45,000 genes of the mouse genome (ileal tissue; 8-week STAT mice, T-test p<0.05 and fold change ≧1.2 or ≦0.8)	SAA1 expression in ileal tissue (microarray/GSEA) (ileal tissue; 8-week, STAT vs control)	SAA gene expression (SAA 1, 2, 3) in the terminal ileum [1]
CC1(C)S[C@@H]2[C@H](NC(=O)COc3ccccc3)C(=O)N2[C@H]1C(=O)[O-].[K+] [STAT, penicillin VK]	trended downwards	significantly down-regulated	downward trend	significantly down-regulated	significantly down-regulated	significantly down-regulated	significantly down-regulated	significantly lower	significantly down-regulated	significantly down-regulated	significantly lower	997	strong down-regulation	–
CC[C@H]1OC(=O)C[C@@H](O)[C@H](C)[C@@H](O[C@@H]2O[C@H](C)[C@@H](O[C@H]3C[C@@](C)(O)[C@@H](O)[C@H](C)O3)[C@H](N(C)C)[C@H]2O)[C@@H](CC=O)C[C@@H](C)C(=O)/C=C/C(C)=C/[C@@H]1CO[C@@H]1O[C@H](C)[C@@H](O)[C@@H](OC)[C@H]1OC [Tylosin, Tylosin tartrate]	–	–	–	–	–	–	–	–	–	–	–	–	–	significantly decreases
